From patent US9260756B2, “Esophageal microRNA expression profiles in eosinophilic esophagitis” (CHILDREN'S HOSPITAL MEDICAL CENTER, priority 2012, dated 2016) come the findings set out here.

In one test the test system is miR-375. Briefly: qRT-PCR of miR-375 in esophageal biopsies of EE patients. The class given is in vivo, human. As to conditions: EE patients that responded to therapy, qPCR normalized to U6. The text has this: Patients were selected without regard to age, race, or sex. Normal patients presented to the clinic with symptoms consistent with gastroesophageal reflux disease or EE, but the endoscopic and histologic findings for these patients were normal. […] The active chronic esophagitis patients had eosinophil counts of 1-15 per 400×hpf in the esophageal biopsies. Patients with systemic or swallowed topical glucocorticoid use were excluded from the selection of active EE or active chronic esophagitis patients.
Levels of miRNA expression were measured quantitatively by using the TaqMan MicroRNA Assays (Applied Biosystems), following the manufacturer's protocol. The expression levels were normalized to the U6 endogenous control. Relative expression was calculated as previously described (Lu, T. et al. J. Immunol. 182:4994-5002 (2009)).
A general note: In qPCR the cycle at which signal appears reflects the starting amount.

In test [1] the test system is bone marrow-derived eosinophils. Briefly: Cell growth after picropodophyllin treatment, cell counting using a hemacytometer. It is filed as cell-based, mouse. As to conditions: for growth of miR-223+/+ and miR-223-/- eosinophil cultures: 2 μM picropodophyllin from day 8, counted day 10 and day 12, vs DMSO. The method, then: Bone marrow cells were collected from femurs and tibia of the mice, and the stem/progenitor cell-enriched low-density fraction was isolated by gradient centrifugation using the Histopaque 1083 (Sigma), according to the manufacturer's protocol. The low density fraction of bone marrow cells were cultured in IMDM with 10% FBS, 100 U/ml penicillin, and 100 μg/ml streptomycin supplemented with 100 ng/mL stem cell factor and 100 ng/mL FLT-3 ligand (Peprotech) from day 0 to day 4.
The stem cell factor and FLT-3 ligand were replaced with 10 ng/mL IL-5 on day 4, and the cells were cultured for an additional 10-12 days in the presence of IL-5 (Dyer, K. et al. J. Immunol. 181:4004-9 (2008)). The culture media was changed every other day, and cells were counted and concentration was adjusted to 1×10^6/mL during each media change. Eosinophil maturity was assessed by FACS staining for CCR3 and Siglec-F and/or Diff-Quik (Fisher Scientific) staining of cytospin preparations. Eosinophil progenitor growth was assessed by counting the cells every 2 days using a hemacytometer.
(§1) Bone marrow-derived eosinophils were re-suspended at a concentration of 1×10^6 cells/ml and treated with DMSO or 2 μM of picropodophyllin at day 8 (Yin, S. et al. Neuro. Oncol. 12:19-27 (2010)). Cell growth was determined by cell counting using a hemacytometer on day 10 and day 12. Cell lysates were collected on day 10, and levels of IGF1R expression were determined by western blot.

Another test has as its target T1, IGF1R (Mus musculus, UniProt Q60751).
T1 construct: endogenous in cells; host or cells: bone marrow-derived eosinophil (progenitor) cultures from miR-223+/+ and miR-223-/- mice
The experiment in a line: IGF1R expression by western blot after picropodophyllin treatment. The class given is cell-based. Particulars: day 10, after 2-day treatment with 2 μM picropodophyllin, both miR-223+/+ and miR-223-/- cultures. The method, then:
Cells were rapidly washed in phosphate buffered saline and lysed in M-PER mammalian protein extraction reagent (Pierce, Rockford, Ill.), according to the manufacturer's protocol. Protease inhibitor cocktails (Pierce) and phosphatase inhibitor cocktails (Pierce) were added to the M-PER protein extraction reagent immediately before lysis. Western blot analysis was performed, as described in a previous protocol (Lim, E. et al. J. Biol. Chem. 286:13193-204 (2011)). The assay was conducted using an anti-IGF1R antibody (Cell Signaling Technology, Danvers, Mass.) and an anti-GAPDH antibody (Abcam, Cambridge, UK).
as §1
For orientation: A western blot detects proteins with antibodies after separation by electrophoresis.

Test [2] deals with human esophageal epithelial cells. The experiment in a line: miRNA expression in IL-13-stimulated human esophageal epithelial cells (microarray, qPCR). It is filed as cell-based. Particulars: after 24 and 48 hours of IL-13 stimulation, normalized to U6. The method, then: (§2) Human esophageal epithelial cells derived from human patient biopsies were cultured, as described in a previous protocol (Blanchard, C. et al. J. Allergy Clin. Immunol. 120:1292-300 (2007)). The human bronchial epithelial cell line HBEC was cultured as previously described (Ramirez, R. et al. Cancer Res. 64:9027-34 (2004)). The normal human bronchial epithelial cells (Lonza, Basel, Switzerland) were cultured, as described in a previous protocol (Kariyawasam, H. et al. J. Allergy Clin. Immunol. 124:454-462 (2009)). The U937 monocytes and Jurkat T cells were cultured in RPMI 1640 medium (Fisher Scientific) supplemented with 10% FBS, 100 U/mL penicillin, and 100 μg/ml streptomycin. […]
(§3) Human esophageal epithelial cells and bronchial epithelial cells were stimulated with media or 100 ng/mL IL-13 for 24 hours. […] RNA quality was assessed using the 2100 bioanalyzer (Agilent Technologies), and only samples with RNA integrity number >8 were used. […]
(§4) The miRNAs differentially regulated between unstimulated and IL-13 stimulated samples were identified by normalizing the expression data to the average of two endogenous control probes, namely RNU44 and RNU48, then filtered on cycle threshold values <35 and at least a 2-fold change between unstimulated and IL-13-stimulated samples. Statistical significance was determined at p<0.05 with Benjamini Hochberg false discovery rate correction. […]

Test [3] concerns human bronchial epithelial cells. Briefly: miRNA expression in IL-13-stimulated human bronchial epithelial cells (microarray, qPCR). As to conditions: normal human bronchial epithelial cells, after 24 and 48 hours of IL-13 stimulation, normalized to U6. It is filed as cell-based. As to the method:
as §2, §3, §4

T1 sequence (Q60751 31-1373): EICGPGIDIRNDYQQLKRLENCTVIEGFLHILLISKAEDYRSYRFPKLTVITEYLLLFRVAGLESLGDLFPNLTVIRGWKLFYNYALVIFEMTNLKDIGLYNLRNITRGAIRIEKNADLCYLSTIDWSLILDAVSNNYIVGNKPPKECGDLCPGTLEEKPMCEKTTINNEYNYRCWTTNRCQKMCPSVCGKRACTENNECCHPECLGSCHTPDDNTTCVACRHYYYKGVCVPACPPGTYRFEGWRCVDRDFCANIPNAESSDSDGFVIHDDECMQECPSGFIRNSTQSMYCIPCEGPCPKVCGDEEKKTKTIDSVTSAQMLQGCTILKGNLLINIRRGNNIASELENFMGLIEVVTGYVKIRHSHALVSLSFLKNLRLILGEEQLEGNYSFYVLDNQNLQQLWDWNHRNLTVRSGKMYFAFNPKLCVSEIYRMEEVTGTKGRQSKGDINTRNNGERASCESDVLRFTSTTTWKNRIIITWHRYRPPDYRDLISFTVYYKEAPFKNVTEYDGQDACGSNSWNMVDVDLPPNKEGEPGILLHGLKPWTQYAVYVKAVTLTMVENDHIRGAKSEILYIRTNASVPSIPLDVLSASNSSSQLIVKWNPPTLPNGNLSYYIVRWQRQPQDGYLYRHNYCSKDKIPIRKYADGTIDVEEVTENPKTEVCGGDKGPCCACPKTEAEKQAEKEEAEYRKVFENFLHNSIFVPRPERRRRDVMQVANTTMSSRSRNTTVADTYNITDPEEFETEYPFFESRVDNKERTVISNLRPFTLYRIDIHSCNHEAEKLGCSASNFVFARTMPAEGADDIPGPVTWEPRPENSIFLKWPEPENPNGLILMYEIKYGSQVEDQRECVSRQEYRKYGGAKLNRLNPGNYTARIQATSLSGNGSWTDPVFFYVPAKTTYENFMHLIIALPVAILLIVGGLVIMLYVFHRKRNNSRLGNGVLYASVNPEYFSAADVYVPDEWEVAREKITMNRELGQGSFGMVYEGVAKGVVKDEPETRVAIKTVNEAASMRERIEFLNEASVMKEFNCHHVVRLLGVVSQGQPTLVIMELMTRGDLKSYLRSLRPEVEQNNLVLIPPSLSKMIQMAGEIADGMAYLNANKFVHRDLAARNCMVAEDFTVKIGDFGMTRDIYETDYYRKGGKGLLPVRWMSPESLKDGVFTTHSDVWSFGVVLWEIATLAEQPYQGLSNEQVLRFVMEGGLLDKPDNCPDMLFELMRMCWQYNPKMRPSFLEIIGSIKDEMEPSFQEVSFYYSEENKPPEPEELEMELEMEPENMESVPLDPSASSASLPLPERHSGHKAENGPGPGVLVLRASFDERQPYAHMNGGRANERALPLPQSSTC

As for `CCC(=O)O[C@]1(C(=O)SCF)[C@H](C)C[C@H]2[C@@H]3C[C@H](F)C4=CC(=O)C=C[C@]4(C)[C@@]3(F)[C@@H](O)C[C@@]21C` [fluticasone propionate], the “miR-375 levels in esophageal tissue” value in the test on miR-375 is recorded as “comparable to normal healthy controls”.

As for `COc1cc([C@@H]2c3cc4c(cc3[C@H](O)[C@H]3COC(=O)[C@@H]23)OCO4)cc(OC)c1OC` [picropodophyllin], the “growth of miR-223+/+ and miR-223-/- eosinophil cultures” value in test [1] is on record as “inhibited”; in test [1] (listed as pricopodphyllin), “inhibits”. In addition, the “increased proliferation seen in miR-223-/- cultures” value in test [1] (2 μM picropodophyllin, miR-223-/- vs miR-223+/+ cultures) is recorded as “completely reversing”. Also, the “IGF1 receptor expression level” value on IGF1R is “nearly complete down-regulation”.

On to “IL-13: cytokine used at 100 ng/mL to stimulate human esophageal and bronchial epithelial cells”, for which the miR-375 expression result in test [2] and in test [3] was “down-regulated” throughout.
